How the values were obtained:
potassium arsenate = compound: O=[As]([O-])(O)O.[K+] [potassium arsenate]; test: thermal stability z-score vs DMSO; higher = more thermally stabilized by treatment; conditions: HeLa; arsenate concentration 1 mM
Procedure: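 Cellular thermal proteome profiling in HeLa cells treated with 1 mM arsenate for 1 h (DMSO pretreatment), heated to ten temperatures (37-66.3 °C). Soluble protein was quantified by TMT mass spectrometry relative to DMSO controls; the thermal stability score was transformed to a z-score; mean of n = 3 experiments.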

lipoamide = compound: NC(=O)CCCCC1CCSS1 [lipoamide]; test: as above; conditions: HeLa, lipoamide concentration 100 µM
Procedure: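 Cellular thermal proteome profiling in HeLa cells. Cells were treated with 100 µM lipoamide for 1 h, with or without 1 mM arsenate for a further 1 h, then heated to ten temperatures (37-66.3 °C), and soluble protein was quantified by TMT mass spectrometry relative to 0.1% DMSO controls. The thermal stability score (sum of log2 fold changes minus the abundance score) was transformed to a z-score; mean of n = 3 experiments.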

[1] = arsenate co-treatment: 1 mM arsenate 1 h
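Further: each temperature applied for 3 min, abundance score taken as mean log2 fold change at the two lowest temperatures, z-score obtained by mean subtraction and division by SD.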

Sequence of UniProt Q9H8X2 (Q9H8X2 whole entry): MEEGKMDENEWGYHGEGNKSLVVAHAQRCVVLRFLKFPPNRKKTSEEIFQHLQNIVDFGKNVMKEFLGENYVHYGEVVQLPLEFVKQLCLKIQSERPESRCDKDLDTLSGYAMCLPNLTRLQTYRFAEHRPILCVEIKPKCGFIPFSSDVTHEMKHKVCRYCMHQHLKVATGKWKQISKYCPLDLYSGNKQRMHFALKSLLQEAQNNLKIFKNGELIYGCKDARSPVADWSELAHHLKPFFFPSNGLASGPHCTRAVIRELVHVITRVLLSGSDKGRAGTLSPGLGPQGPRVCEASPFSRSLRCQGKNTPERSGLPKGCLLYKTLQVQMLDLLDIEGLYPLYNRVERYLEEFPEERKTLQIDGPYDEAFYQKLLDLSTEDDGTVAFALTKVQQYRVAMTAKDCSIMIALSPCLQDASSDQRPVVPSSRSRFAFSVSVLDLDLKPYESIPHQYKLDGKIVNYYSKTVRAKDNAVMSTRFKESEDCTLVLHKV
Sequence of UniProt O14976 (O14976 whole entry): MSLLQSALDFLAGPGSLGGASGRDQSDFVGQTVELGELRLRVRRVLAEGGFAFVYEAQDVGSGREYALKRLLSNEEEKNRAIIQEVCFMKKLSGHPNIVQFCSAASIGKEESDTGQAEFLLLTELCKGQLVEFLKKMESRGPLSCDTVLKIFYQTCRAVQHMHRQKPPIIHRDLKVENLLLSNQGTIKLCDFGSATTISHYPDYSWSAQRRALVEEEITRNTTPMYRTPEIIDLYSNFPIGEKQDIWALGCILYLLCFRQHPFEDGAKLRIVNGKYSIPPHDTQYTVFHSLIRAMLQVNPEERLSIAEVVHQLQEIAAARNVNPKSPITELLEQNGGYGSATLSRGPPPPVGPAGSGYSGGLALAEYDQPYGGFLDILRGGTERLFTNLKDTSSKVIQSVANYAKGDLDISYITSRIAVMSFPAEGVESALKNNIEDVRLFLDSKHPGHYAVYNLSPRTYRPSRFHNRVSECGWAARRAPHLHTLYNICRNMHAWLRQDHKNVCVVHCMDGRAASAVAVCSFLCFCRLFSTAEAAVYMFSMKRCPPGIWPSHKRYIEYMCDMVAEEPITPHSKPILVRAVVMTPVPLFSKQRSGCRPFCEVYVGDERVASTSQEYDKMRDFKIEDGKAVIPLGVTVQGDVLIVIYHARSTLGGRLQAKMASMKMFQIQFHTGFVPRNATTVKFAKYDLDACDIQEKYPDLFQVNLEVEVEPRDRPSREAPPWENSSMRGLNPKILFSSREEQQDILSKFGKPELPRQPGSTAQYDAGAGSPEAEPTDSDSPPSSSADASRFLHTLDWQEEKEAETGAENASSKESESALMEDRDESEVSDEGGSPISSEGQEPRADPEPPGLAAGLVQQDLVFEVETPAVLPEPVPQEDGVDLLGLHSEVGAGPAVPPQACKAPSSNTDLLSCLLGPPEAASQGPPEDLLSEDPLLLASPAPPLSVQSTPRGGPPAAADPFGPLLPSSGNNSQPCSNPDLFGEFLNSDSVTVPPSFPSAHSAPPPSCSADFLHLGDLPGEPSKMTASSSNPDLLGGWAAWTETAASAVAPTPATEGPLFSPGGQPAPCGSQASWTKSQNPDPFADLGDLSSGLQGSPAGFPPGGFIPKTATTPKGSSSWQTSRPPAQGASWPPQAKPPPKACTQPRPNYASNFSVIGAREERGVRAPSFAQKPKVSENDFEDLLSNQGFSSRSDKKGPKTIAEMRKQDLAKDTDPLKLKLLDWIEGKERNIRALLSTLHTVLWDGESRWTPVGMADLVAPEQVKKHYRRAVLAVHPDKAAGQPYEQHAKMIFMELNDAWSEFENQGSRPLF
Sequence of UniProt Q9Y606 (Q9Y606 whole entry): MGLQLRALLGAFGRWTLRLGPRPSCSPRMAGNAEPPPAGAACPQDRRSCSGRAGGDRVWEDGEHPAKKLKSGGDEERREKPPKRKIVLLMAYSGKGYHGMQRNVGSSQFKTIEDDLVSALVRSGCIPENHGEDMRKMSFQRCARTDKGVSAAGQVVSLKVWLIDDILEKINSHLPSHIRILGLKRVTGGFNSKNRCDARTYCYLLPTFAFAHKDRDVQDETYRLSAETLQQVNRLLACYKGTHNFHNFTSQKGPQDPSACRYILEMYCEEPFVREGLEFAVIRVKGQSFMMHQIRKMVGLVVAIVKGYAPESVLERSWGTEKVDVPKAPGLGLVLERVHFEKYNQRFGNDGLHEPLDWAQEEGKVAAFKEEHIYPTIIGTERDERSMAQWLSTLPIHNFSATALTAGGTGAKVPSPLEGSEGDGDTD
Sequence of UniProt Q5VW36 (Q5VW36 whole entry): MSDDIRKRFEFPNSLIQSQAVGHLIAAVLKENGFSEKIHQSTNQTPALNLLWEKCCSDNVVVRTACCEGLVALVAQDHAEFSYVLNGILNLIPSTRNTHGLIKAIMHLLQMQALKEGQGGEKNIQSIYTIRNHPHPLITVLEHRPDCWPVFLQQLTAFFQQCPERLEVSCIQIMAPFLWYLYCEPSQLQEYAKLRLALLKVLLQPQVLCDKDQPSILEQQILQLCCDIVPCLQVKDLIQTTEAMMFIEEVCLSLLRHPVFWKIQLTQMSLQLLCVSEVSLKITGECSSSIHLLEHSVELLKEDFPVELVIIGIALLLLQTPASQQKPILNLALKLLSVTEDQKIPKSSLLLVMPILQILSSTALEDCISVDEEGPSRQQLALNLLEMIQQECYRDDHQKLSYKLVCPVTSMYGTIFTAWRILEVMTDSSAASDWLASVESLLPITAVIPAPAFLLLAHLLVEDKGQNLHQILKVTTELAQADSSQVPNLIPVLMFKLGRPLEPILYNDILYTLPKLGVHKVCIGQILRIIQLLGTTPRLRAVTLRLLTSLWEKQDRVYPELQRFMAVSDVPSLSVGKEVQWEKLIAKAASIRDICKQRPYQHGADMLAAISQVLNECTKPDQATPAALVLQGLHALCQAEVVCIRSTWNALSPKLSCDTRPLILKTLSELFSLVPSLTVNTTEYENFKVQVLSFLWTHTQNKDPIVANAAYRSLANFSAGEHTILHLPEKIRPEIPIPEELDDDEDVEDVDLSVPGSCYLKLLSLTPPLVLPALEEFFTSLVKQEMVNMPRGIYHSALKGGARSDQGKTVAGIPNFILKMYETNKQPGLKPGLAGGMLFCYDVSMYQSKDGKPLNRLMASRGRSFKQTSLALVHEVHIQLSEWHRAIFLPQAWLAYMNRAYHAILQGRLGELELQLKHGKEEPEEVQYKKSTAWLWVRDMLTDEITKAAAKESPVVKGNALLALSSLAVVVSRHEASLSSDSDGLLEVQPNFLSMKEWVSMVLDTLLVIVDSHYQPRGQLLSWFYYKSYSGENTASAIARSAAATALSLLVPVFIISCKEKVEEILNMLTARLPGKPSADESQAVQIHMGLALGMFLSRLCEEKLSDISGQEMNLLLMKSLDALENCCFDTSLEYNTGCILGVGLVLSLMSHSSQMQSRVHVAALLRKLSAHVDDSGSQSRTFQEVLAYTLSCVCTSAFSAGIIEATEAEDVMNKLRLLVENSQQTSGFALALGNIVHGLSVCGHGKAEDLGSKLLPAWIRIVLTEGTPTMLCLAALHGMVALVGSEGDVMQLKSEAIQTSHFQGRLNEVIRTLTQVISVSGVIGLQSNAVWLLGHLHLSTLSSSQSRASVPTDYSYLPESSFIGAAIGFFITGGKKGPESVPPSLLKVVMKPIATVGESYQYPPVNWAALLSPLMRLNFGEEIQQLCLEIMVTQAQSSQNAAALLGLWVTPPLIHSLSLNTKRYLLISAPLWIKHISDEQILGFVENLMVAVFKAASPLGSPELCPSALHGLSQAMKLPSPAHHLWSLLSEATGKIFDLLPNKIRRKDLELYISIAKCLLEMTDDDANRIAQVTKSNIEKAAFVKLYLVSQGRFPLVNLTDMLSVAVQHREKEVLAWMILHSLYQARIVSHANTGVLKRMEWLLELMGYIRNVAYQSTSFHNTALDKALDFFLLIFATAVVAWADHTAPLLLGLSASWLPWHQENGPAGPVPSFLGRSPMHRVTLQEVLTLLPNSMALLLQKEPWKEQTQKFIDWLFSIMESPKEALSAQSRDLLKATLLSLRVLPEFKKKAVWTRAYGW
Sequence of UniProt O43156 (O43156 whole entry): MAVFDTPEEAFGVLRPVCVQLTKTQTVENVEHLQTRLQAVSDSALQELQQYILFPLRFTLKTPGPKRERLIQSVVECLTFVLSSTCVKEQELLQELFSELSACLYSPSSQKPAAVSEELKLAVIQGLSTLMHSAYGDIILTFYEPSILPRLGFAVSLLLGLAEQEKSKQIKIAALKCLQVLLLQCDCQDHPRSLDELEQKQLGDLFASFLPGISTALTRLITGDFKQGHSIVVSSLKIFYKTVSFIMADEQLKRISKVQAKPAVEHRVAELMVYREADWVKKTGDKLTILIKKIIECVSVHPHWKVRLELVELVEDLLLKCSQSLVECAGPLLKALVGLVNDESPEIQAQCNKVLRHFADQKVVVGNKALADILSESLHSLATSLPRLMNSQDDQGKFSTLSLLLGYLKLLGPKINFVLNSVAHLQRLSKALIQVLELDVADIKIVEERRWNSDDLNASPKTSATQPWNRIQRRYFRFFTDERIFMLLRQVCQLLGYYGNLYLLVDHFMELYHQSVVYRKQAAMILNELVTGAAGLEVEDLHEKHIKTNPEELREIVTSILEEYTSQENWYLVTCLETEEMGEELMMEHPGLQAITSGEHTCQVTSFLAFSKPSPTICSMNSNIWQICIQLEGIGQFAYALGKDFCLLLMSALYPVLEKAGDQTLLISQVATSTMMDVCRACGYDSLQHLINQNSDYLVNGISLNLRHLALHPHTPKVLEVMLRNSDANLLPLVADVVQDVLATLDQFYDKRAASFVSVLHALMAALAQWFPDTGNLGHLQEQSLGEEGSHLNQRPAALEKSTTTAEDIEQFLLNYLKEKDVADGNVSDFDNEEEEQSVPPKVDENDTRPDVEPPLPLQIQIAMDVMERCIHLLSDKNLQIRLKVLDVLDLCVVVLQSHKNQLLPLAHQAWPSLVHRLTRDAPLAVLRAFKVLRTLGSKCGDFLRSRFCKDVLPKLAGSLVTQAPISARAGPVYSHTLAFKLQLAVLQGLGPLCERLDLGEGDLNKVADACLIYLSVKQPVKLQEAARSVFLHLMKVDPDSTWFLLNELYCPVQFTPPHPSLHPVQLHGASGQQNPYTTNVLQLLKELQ

| Target | thermal stability z-score (potassium arsenate) | thermal stability z-score (lipoamide; [1]) | thermal stability z-score (lipoamide; arsenate co-treatment: none) |
| --- | --- | --- | --- |
| FBXL16 (UniProt Q8N461) | -0.0763 | -0.137 | 0.0698 |
| TTC17 (UniProt Q96AE7) | 0.453 | -0.85 | -0.317 |
| PTGES3 (UniProt Q15185) | -0.454 | 0.0467 | 0.127 |
| WNT5A (UniProt P41221) | 0.214 | -0.888 | -0.379 |
| PUS1 (UniProt Q9Y606) | 0.257 | -0.761 | -0.18 |
| FAM98A (UniProt Q8NCA5) | -1.6 | -0.444 | -0.673 |
| CCT6A (UniProt P40227) | -0.174 | 0.06 | -0.18 |
| ELP4 (UniProt Q96EB1) | 0.742 | -0.492 | 0.609 |
| NBN (UniProt O60934) | -0.469 | 0.219 | 0.275 |
| SSX2IP (UniProt Q9Y2D8) | -0.0542 | -0.271 | -0.143 |
| RFX1 (UniProt P22670) | 0.128 | 1.04 | 0.453 |
| UTP20 (UniProt O75691) | -0.134 | -0.113 | -0.168 |
| SF3B4 (UniProt Q15427) | -0.243 | 0.152 | -0.211 |
| WWC2 (UniProt Q6AWC2) | -0.129 | -0.0127 | -0.0518 |
| ADAM17 (UniProt P78536) | -0.966 | -1.11 | -0.994 |
| IDH3A (UniProt P50213) | -1.11 | -0.0281 | -0.439 |
| MINA (UniProt Q8IUF8) | -1.34 | 0.0507 | 0.508 |
| VPS29 (UniProt Q9UBQ0) | -0.613 | -0.418 | -0.247 |
| RNF126 (UniProt Q9BV68) | -2.65 | -1 | -1.02 |
| ITCH (UniProt Q96J02) | -0.386 | -0.451 | -0.173 |
| PARP2 (UniProt Q9UGN5) | -0.0979 | 0.0296 | -0.0685 |
| KCMF1 (UniProt Q9P0J7) | 0.636 | -0.251 | -0.483 |
| PEX19 (UniProt P40855) | 1.13 | 1.96 | 1.51 |
| IPPK (UniProt Q9H8X2) | 0.0883 | 0.199 | 0.487 |
| OGFOD1 (UniProt Q8N543) | 1.04 | 0.312 | -0.342 |
| ARFGEF2 (UniProt Q9Y6D5) | 0.0926 | -0.376 | -0.0733 |
| RABEP1 (UniProt Q15276) | 0.182 | -0.36 | -0.194 |
| PRKAR1B (UniProt P31321) | 1.31 | 0.568 | 0.264 |

| Target | thermal stability z-score (potassium arsenate) | thermal stability z-score (lipoamide; [1]) | thermal stability z-score (lipoamide; arsenate co-treatment: none) |
| --- | --- | --- | --- |
| TBK1 (UniProt Q9UHD2) | -0.00763 | -0.607 | -0.189 |
| SAP30BP (UniProt Q9UHR5) | 1.03 | 0.884 | 0.612 |
| SDE2 (UniProt Q6IQ49) | -1.16 | -0.399 | -0.282 |
| EIF4E2 (UniProt O60573) | -1.43 | -0.568 | -0.113 |
| FOCAD (UniProt Q5VW36) | -0.279 | 0.151 | 0.411 |
| AHCYL2 (UniProt Q96HN2) | -1.74 | 0.295 | 0.547 |
| UCHL5 (UniProt Q9Y5K5) | 0.855 | 0.0058 | 0.138 |
| STK4 (UniProt Q13043) | -0.188 | 0.0921 | -0.0308 |
| CYFIP2 (UniProt Q96F07) | 0.312 | 0.325 | 0.825 |
| TTI1 (UniProt O43156) | 1.78 | 0.86 | 1.21 |
| TMEM56 (UniProt Q96MV1) | 0.953 | 0.138 | 1.15 |
| HPCAL1 (UniProt P37235) | 0.342 | 1.09 | 1.31 |
| CNDP2 (UniProt Q96KP4) | 0.248 | 0.517 | 0.0712 |
| PREPL (UniProt Q4J6C6) | -0.177 | 0.836 | 0.783 |
| ZADH2 (UniProt Q8N4Q0) | 0.319 | 0.265 | 0.233 |
| POMGNT1 (UniProt Q8WZA1) | -0.0541 | -0.429 | 0.0715 |
| GSTZ1 (UniProt O43708) | 0.239 | -0.243 | 0.0552 |
| CTTN (UniProt Q14247) | 0.2 | 0.536 | 0.451 |
| PITPNB (UniProt P48739) | -1.18 | -0.0644 | 0.129 |
| RUVBL2 (UniProt Q9Y230) | -0.75 | -0.408 | -0.0917 |
| ATPIF1 (UniProt Q9UII2) | -0.206 | 0.646 | 0.505 |
| RSU1 (UniProt Q15404) | -1.38 | -0.465 | -0.369 |
| MANF (UniProt P55145) | 0.0791 | 0.0932 | -0.0959 |
| SAT2 (UniProt Q96F10) | 0.614 | 0.538 | 0.492 |
| PUM1 (UniProt Q14671) | -0.174 | -0.249 | -0.0302 |
| CTNNBL1 (UniProt Q8WYA6) | -0.00699 | -0.0207 | 0.00313 |
| GAK (UniProt O14976) | 0.475 | 0.338 | -0.0197 |
